The values below come from ChEMBL document CHEMBL1201862, “PubChem BioAssay data set” (2004).

One assay deals with Prothrombin (Homo sapiens, UniProt P00734). Kind of assay: Thrombin 1536 HTS Dose Response Confirmation. [Related pubchem assays: 1046 (Thrombin 1536 HTS; hits were confirmed in this assay)]. The format is functional.
Assay [1] can be described thus: viability loss in HeLa cells – cytotoxicity control for MgcRacGAP inhibitor project, dose response (AID 624300). The format is functional.
Assay [2] deals with T1, Rac GTPase-activating protein 1 (Homo sapiens, UniProt Q9H0H5).
T1 sequence (Q9H0H5 whole entry): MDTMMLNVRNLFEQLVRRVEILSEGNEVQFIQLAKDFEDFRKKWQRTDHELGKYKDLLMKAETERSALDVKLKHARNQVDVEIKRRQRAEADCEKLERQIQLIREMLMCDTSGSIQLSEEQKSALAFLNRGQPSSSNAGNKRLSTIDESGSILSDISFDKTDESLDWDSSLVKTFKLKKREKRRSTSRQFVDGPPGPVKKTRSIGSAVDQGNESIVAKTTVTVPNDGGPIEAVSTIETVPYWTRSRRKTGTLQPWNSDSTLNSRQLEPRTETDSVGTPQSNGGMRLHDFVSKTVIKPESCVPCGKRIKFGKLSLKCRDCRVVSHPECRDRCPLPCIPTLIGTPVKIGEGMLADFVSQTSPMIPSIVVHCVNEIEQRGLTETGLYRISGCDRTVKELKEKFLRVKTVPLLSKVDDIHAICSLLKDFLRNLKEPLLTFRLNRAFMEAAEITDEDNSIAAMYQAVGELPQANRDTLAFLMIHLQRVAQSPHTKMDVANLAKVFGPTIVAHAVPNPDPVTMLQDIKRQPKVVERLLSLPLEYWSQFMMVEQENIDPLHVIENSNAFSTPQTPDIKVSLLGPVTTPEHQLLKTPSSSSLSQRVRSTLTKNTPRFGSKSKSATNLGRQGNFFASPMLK
As to the kind of experiment: blockers of MgcRacGAP-driven Rac1 GTP hydrolysis – biochemical, ADP Hunter fluorescence, primary and confirmatory, confirmation (AID 624330). The format is functional.

The target of assay [3] is NAD-dependent protein deacylase sirtuin-5, mitochondrial (Homo sapiens, UniProt Q9NXA8). As to the kind of experiment: sirtuin-5 deacylation blockers, concentration series – biochemical, fluorescence imaging, cherry-pick, set 5, dose response (AID 720591).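 Further: desuccinylation of succinyl peptide AMC substrate read as fluorescence after trypsin release; potency of inhibitors that lower fluorescence and may act on trypsin instead.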
Sequence of NAD-dependent protein deacylase sirtuin-5, mitochondrial (Q9NXA8 whole entry): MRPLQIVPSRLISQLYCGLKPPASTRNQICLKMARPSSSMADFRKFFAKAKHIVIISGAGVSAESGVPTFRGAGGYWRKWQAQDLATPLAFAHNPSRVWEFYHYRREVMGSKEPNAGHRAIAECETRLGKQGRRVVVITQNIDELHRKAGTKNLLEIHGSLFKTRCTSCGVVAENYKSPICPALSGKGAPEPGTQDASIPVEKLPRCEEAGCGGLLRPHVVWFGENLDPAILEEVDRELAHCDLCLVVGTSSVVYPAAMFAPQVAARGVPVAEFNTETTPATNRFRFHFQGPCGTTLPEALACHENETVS
Assay [4] can be described thus: viability of uninfected HEp-2 cells – cell-based, HTS, cytotoxicity control for RSV inhibitor project, dose response (AID 2410). The class given is functional. The following applies: human respiratory syncytial virus.
The target of assay [5] is T2, Neuropeptide Y receptor type 2 (Homo sapiens, UniProt P49146).
T2 sequence (P49146 whole entry): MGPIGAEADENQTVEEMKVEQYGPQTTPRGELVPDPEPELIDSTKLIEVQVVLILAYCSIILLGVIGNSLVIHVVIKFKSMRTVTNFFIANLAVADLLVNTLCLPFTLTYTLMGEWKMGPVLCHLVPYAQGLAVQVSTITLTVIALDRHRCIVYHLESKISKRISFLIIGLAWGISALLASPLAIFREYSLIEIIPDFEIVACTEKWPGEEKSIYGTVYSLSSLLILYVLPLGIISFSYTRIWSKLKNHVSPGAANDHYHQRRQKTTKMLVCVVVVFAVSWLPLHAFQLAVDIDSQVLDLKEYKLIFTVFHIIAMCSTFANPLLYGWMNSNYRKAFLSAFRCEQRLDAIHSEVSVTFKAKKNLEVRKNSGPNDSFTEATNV
As to the kind of experiment: Fluorescence-based cell-based high-throughput dose response assay for agonists of NPY-Y2. [Related pubchem assays: 1703 (Screening assay (CNGC inhibitors).), 1359 (Screening assay (NPY-Y2 potentiators or agonists).), 1304 (Screening assay (NPY-Y1 potentiators or agonists).), 1710 (Screening assay (NPY-Y2 agonists).), 1791 (Summary AID.)]. The class given is functional.

The target of a further assay is T3, Streptokinase A (Streptococcus pyogenes serotype M1, UniProt P10520).
T3 sequence (P10520 whole entry): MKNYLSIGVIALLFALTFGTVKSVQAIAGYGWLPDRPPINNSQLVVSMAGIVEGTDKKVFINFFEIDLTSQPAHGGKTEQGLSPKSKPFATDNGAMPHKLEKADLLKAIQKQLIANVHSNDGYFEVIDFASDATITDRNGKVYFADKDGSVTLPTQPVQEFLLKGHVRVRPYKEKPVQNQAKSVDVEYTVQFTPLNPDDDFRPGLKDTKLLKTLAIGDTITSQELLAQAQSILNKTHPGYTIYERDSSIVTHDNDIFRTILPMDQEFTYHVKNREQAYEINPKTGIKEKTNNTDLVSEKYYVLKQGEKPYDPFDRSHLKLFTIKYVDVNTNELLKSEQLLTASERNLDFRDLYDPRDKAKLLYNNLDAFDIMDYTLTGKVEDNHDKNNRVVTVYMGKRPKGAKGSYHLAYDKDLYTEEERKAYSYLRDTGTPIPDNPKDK
Kind of assay: viability-normalized secreted streptokinase activity reduction – plasminogen activation absorbance, OD405, dose response (AID 1914).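 Further: secreted streptokinase activity via plasminogen activation per viability signal from cell pellet.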 The class given is functional, Streptococcus pyogenes M1 GAS.

Assay [6] has as its target T4, Neuropeptide Y receptor type 1 (Homo sapiens, UniProt P25929).
T4 sequence (P25929 whole entry): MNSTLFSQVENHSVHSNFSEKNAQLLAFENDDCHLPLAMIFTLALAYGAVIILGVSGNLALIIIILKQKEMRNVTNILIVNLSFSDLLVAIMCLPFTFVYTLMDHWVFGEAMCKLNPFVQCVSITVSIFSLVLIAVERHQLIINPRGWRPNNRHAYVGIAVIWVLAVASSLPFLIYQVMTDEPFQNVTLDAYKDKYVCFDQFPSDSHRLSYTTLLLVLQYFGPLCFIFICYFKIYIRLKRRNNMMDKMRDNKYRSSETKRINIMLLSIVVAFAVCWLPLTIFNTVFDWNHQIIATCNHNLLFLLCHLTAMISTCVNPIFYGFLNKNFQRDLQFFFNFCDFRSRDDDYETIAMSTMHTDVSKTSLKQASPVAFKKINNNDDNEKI
As to the kind of experiment: Fluorescence-based counterscreen for agonists of NPY-Y2: cell-based high-throughput dose response assay for agonists of NPY-Y1. The format is functional. (In general: Counterscreens check selectivity or assay interference.)

Assay [7] addresses T5, Replicative DNA helicase DnaB (Mycobacterium tuberculosis, UniProt P9WMR3).
T5 sequence (P9WMR3 whole entry): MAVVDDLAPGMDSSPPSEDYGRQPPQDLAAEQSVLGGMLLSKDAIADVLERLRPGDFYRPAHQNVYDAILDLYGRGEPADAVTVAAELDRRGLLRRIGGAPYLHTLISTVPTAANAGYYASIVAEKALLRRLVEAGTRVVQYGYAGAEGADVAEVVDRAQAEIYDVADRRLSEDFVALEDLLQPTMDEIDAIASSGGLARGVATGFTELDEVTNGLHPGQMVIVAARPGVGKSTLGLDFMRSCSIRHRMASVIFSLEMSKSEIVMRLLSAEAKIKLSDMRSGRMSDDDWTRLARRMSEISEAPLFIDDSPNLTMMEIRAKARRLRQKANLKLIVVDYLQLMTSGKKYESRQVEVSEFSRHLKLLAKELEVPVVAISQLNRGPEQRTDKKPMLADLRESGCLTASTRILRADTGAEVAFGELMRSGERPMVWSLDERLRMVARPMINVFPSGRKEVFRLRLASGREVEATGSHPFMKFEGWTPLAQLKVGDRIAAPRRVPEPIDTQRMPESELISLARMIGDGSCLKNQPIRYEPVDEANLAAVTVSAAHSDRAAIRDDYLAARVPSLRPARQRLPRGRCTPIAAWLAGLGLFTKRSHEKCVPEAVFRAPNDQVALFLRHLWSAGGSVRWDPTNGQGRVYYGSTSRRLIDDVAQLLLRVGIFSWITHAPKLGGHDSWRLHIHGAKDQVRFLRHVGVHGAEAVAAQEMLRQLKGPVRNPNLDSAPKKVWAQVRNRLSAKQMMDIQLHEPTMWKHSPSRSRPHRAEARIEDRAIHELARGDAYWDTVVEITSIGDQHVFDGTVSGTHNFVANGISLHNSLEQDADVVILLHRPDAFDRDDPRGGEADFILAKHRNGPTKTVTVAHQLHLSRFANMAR
Kind of assay: DnaB intein splicing inhibitors, dose response, biochemical, cell-free fluorescence (AID 449749). The format is functional.

A further assay has as its target T6, Protein RecA (Mycobacterium tuberculosis, UniProt P9WHJ3).
T6 sequence (P9WHJ3 whole entry): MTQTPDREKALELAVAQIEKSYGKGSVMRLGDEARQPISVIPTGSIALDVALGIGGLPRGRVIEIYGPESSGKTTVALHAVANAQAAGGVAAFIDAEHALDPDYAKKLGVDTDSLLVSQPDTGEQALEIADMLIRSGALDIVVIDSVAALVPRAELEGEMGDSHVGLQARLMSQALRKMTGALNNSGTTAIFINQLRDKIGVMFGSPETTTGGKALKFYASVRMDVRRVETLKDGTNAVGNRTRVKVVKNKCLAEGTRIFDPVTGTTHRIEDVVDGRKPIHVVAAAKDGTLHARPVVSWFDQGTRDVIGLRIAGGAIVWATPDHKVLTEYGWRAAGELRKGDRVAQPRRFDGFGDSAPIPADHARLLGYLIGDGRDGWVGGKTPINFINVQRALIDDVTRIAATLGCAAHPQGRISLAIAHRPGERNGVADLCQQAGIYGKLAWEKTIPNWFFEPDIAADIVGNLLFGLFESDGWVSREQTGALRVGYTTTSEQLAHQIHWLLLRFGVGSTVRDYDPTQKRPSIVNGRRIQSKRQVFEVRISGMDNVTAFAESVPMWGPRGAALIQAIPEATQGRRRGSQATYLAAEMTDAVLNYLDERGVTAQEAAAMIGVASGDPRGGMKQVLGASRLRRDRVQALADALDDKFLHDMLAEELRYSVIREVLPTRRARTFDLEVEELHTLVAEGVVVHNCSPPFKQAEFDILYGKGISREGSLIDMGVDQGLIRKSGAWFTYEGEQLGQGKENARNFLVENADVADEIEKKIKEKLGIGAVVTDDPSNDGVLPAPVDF
As to the kind of experiment: Fluorescence Cell-Free Homogeneous Dose Retest to Identify Inhibitors of RecA-Intein Splicing Activity. [Related pubchem assays (depositor defined):AID2097, AID2223, AID489010, AID492950]. The format is functional.

In a further assay the test system is HEK293. As to the kind of experiment: Fluorescence-based counterscreen for potentiators or agonists of NPY-Y2: cell-based high-throughput dose response assay to identify inhibitors of cyclic nucleotide gated ion channel (CNGC) activity. In this assay, the parental HEK293 cell line transfected with a cyclic-nucleotide gated ion channel (CNGC)-based cAMP sensor is used to measure inhibition of isoproterenol-induced CNGC activity by test compound. The following applies: Homo sapiens. The format is functional.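 Further: stimulus is 1 µM isoproterenol at EC100 plus PDE inhibitor Ro 20-1724 at 25 µM.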

The subject of assay [8] is Streptococcus sp. 'group A'. As to the kind of experiment: Streptococcus pyogenes SK(-)GAS viability under kanamycin – luminescence, BacTiterGlo, confirmation, counter-screen for streptokinase expression inhibitor project, dose response (AID 1900). The class given is functional, organism-based.
The next assay relates to Streptococcus. As to the kind of experiment: GAS UMAA2166 growth inhibition – luminescence, BacTiterGlo, counter-screen for streptokinase expression inhibitor project, dose response (AID 1915).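 Further: potency for reduction of bacterial viability or growth.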 The class given is functional, organism-based.
A short description of assay [9]: growth inhibition of yeast DHODH-expressing 3D7 parasites – SYBR Green, dry powder samples, dose response (AID 1159570).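 Further: parasite growth measured after 72 hours of compound exposure.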 The class given is functional, cell-based.
Assay [10] in a line: P. falciparum Dd2 growth inhibitors, dose response, SYBR Green, cherry-picked samples (AID 1159567). The format is functional, cell-based.
Assay [11] can be described thus: Dd2 malaria parasite growth inhibition potency – SYBR Green, dry powder samples, dose response (AID 1159566).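 Further: potency for growth inhibition with lower SYBR green DNA signal.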 The class given is functional, cell-based.
Assay [12] can be described thus: growth inhibition of PfATP4-mutant resistant parasites – NITD609-resistant line, SYBR Green, dry powder, dose response (AID 1159571).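 Further: parasites synchronized at ring stage by sorbitol before testing.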 The class given is functional, cell-based.

Calls of active or inactive are those of the source. Some results are limits rather than exact numbers.

As usually defined, the IC50 is the point on the concentration scale where inhibition reaches its midpoint. `Cc1ccc(C)c(NC(=O)C2Cc3ccccc3CN2C(=O)OCc2ccccc2)c1` (stereo unspecified): the IC50 against Prothrombin is listed as > 50 µM (not active).

In general, CC50 refers to the concentration at which the toxic effect on the cells reaches its halfway point. The AC50 is the midpoint of the concentration-response curve, whichever way the signal moves. On to `CCN(CC)c1ccc(S(=O)(=O)N2CCOCC2)cc1NC(=O)CN1CCN(Cc2ccccc2)CC1`, for which the CC50 in [1] is 100 µM (active). In addition, the IC50 in assay [2] is 84.5 µM (active). Also, in assay [3], the AC50 was 18.1 µM (active).

Turning to `O=C1c2ccccc2C(=O)N1CCCCN(C(=O)c1ccco1)c1ccc(Cl)cc1`, the IC50 in “cells” is 11.8 µM (active).

For the compound `Nc1ccc(Br)c[n+]1Cc1cccc2cccnc12`, the CC50 in [4] was > 50 µM (active). For the same compound, the IC50 in “cells” is 46.7 µM (active).

Usually EC50 stands for the concentration at which the effect is half-maximal. `CC(=O)C(=NNc1cccc(Cl)c1)Nc1ccc(Cl)cc1Cl`: the EC50 in [5] is 21.2 µM (not active); on Streptokinase A it was 2.72 µM (active); in [6], 12.6 µM (not active); at Protein RecA it was 49 µM (active). In addition, in assay [7], the half-maximal activity concentration (AC50) was 379 µM (active).

`CC(=O)C(=Nc1ccc(Cl)cc1Cl)NNc1cccc(Cl)c1`: the EC50 with HEK293 is > 35.4 µM (not active); in assay [8] it was 3.14 µM (active); in the assay on Streptococcus, > 150 µM (not active).

For the compound `CCOC(=O)c1ccc(NC(=O)NC2CCN(CC(=O)NCc3ccc4c(c3)OCO4)CC2)cc1`, the IC50 against Prothrombin is recorded as > 50 µM (not active).

`C/C=C/c1ccccc1[C@H]1[C@@H](C#N)N(C(=O)NC2CCCC2)[C@H]1CO`: the AC50 is 33.8 µM (active) in assay [9], 1.85 µM (active) in assay [10], 0.952 µM (active) in assay [11] and 1.58 µM (active) in [12].

For `Cc1ccc(C(=O)n2nc(-c3ccco3)nc2N)cc1`, the IC50 on Prothrombin was 0.741 µM (active).
